Results on seven molecules are retold here after PubChem BioAssay AID1919000 (Molecular Pharmacology Branch, DTP, NCI, 2023).

The IC50 is the concentration that gives 50% inhibition. What is called viability, T/C is the result in the treated group divided by that in the control group, in per cent.

This assay has as its system 653999-131-R-J2-PDC complex spheroids, growth % test/control. Put plainly: Anticancer human tumor 653999-131-R-J2-PDC patient-derived lung adenocarcinoma cell line growth inhibition [AhR]. As to conditions: for viability, T/C: stronger effect = lower value. The essentials:
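Spheroids combined tumor cells with HUVEC endothelial cells and human MSCs as stroma. AhR antagonists were paired with standard or investigational drugs, each dosed in half-log steps down from near clinical Cmax, or from 10 microM where Cmax was unknown.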

Where [1] appears, read: curve of first compound, second compound 0.1 µM.
Where [2] appears, read: curve of first compound, second compound 0.316 µM.
The mark [3] stands for this setting: curve of first compound, second compound 1 µM.
Where [4] appears, read: curve of first compound, second compound 3.16 µM.
[5] abbreviates: curve of first compound, second compound 10 µM.
Where [6] appears, read: second compound 0.1 µM, first compound 0.0316 µM.
Where [7] appears, read: second compound 0.1 µM, first compound 0.1 µM.
Where [8] appears, read: second compound 0.316 µM, first compound 0.0316 µM.
The mark [9] stands for this setting: second compound 0.316 µM, first compound 0.1 µM.
Where [10] appears, read: second compound 1 µM, first compound 0.0316 µM.
The mark [11] stands for this setting: second compound 1 µM, first compound 0.1 µM.
Where [12] appears, read: second compound 3.16 µM, first compound 0.0316 µM.
[13] abbreviates: second compound 3.16 µM, first compound 0.1 µM.
Setting [14] is: second compound 10 µM, first compound 0.0316 µM.
The mark [15] stands for this setting: second compound 10 µM, first compound 0.1 µM.

Values joined by “and” are separate entries in the source; they are usually repeats but may differ in a detail not shown here. Equal values may be shown once.
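Also: spheroids exposed to agents for seven days.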
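For viability, T/C in this document: 100% = DMSO vehicle control viability.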

For `COc1ccc([C@@H](O)c2cc(-c3ncnc4cc(N5CCOCC5)ccc34)c(F)cc2Cl)nn1` + Cc1cncc(-c2nc(NCCc3c[nH]c4ccccc34)c3ncn(C(C)C)c3n2)c1, the IC50 was 8890 nM under setting [1]; greater than 10000 nM under setting [2]; greater than 10000 nM under setting [3]; greater than 10000 nM under setting [4]; greater than 10000 nM under setting [5]. Moreover, the viability, T/C under setting [6] is 97.7%; the viability, T/C under setting [7] is 121%; the viability, T/C (second compound 0.1 µM, first compound 0.316 µM) is 103%; the viability, T/C (second compound 0.1 µM, first compound 1 µM) was 82.4%; the viability, T/C (second compound 0.1 µM, first compound 3.16 µM) is 72.5%; the viability, T/C (second compound 0.1 µM, first compound 10 µM) is 46.7%. Moreover, the viability, T/C by setting is: under setting [8], 121%; under setting [9], 122%; (second compound 0.316 µM, first compound 0.316 µM) 102%; (second compound 0.316 µM, first compound 1 µM) 99.9%; (second compound 0.316 µM, first compound 3.16 µM) 73%; (second compound 0.316 µM, first compound 10 µM) 54.4%. For the same molecule, the viability, T/C is, setting by setting: under setting [10], 116%; under setting [11], 123%; (second compound 1 µM, first compound 0.316 µM) 122%; (second compound 1 µM, first compound 1 µM) 101%; (second compound 1 µM, first compound 3.16 µM) 87.8%; (second compound 1 µM, first compound 10 µM) 61%. Moreover, the viability, T/C is 125% under setting [12]; 119% under setting [13]; 138% (second compound 3.16 µM, first compound 0.316 µM); 93% (second compound 3.16 µM, first compound 1 µM); 83.3% (second compound 3.16 µM, first compound 3.16 µM); 60.5% (second compound 3.16 µM, first compound 10 µM). For the same molecule, the viability, T/C is 55.7% under setting [14]; 58.9% under setting [15]; 66.2% (second compound 10 µM, first compound 0.316 µM); 65.7% (second compound 10 µM, first compound 1 µM); 66.3% (second compound 10 µM, first compound 3.16 µM); 55.5% (second compound 10 µM, first compound 10 µM).

Regarding `CC(C)CC(NC(=O)C(Cc1ccccc1)NC(=O)c1cnccn1)B(O)O` (stereo not given), the viability, T/C is 112% and 106% and 110% (compound 0.000949 µM); 118% and 114% and 124% (compound 0.003 µM); 107% and 96.5% and 60.7% (compound 0.00949 µM); 30.4% and 28.9% and 21.5% (compound 0.03 µM); 11.3% and 14.9% and 9.51% (compound 0.0949 µM); 3.46% and 4.18% and 3.51% (compound 0.3 µM). The IC50 (curve of compound) was 22.4 nM and 21.1 nM and 12.4 nM.

Consider `CC1COCCN1c1cc(C2(S(C)(=N)=O)CC2)nc(-c2ccnc3[nH]ccc23)n1` (stereo not given), for which the viability, T/C runs as follows: (compound 0.0316 µM) 109% and 102% and 99.7%; (compound 0.1 µM) 110% and 106% and 102%; (compound 0.316 µM) 104% and 101% and 107%; (compound 1 µM) 101% and 98.8% and 94.3%; (compound 3.16 µM) 87.2% and 70.5% and 81.3%; (compound 10 µM) 50.6% and 45.6% and 57.8%. Further, the IC50 (curve of compound) is > 10000 nM and 8160 nM.

For `Nc1ncn(C2CC(O)C(CO)O2)c(=O)n1` (stereo not given), the viability, T/C reads like this: (compound 0.00316 µM) 105% and 95.5% and 110%; (compound 0.01 µM) 106% and 102% and 111%; (compound 0.0316 µM) 96.8% and 96.9% and 93.9%; (compound 0.1 µM) 89.9% and 86.5% and 91.9%; (compound 0.316 µM) 86.2% and 91.9% and 90.9%; (compound 1 µM) 77.5% and 78.8% and 85.9%. Where the note is “curve of compound”, the IC50 was greater than 1000 nM.

As for `COc1cc(C2c3cc4c(cc3C(OC3OC5COC(C)OC5C(O)C3O)C3COC(=O)C23)OCO4)cc(OC)c1O` (stereo not given), the viability, T/C is 99.2% and 89.8% and 87.8% (compound 0.0316 µM); 79.3% and 77.8% and 77.9% (compound 0.1 µM); 61.9% and 67.7% and 69.8% (compound 0.316 µM); 49.1% and 55.2% and 50.4% (compound 1 µM); 39.3% and 43.3% and 43.5% (compound 3.16 µM); 29.4% and 25.6% and 27.5% (compound 10 µM). Also, the IC50 (curve of compound) is 924 nM and 1560 nM and 1450 nM.

On to `CC[C@@]1(O)C(=O)OCc2c1cc1n(c2=O)Cc2cc3c(CN(C)C)c(O)ccc3nc2-1` + Cc1ccccc1N=Nc1ccc(NC(=O)c2ccnn2C)c(C)c1, for which the IC50 is 77.5 nM under setting [1]; 79.6 nM under setting [2]; 68.2 nM under setting [3]; 84.9 nM under setting [4]; greater than 100 nM under setting [5]. Also, the viability, T/C reads like this: (second compound 0.1 µM, first compound 0.000316 µM) 111%; (second compound 0.1 µM, first compound 0.001 µM) 104%; (second compound 0.1 µM, first compound 0.00316 µM) 93.1%; (second compound 0.1 µM, first compound 0.01 µM) 87.7%; under setting [6], 63.7%; under setting [7], 45.9%. In addition, the viability, T/C was 95% (second compound 0.316 µM, first compound 0.000316 µM); 108% (second compound 0.316 µM, first compound 0.001 µM); 120% (second compound 0.316 µM, first compound 0.00316 µM); 88.3% (second compound 0.316 µM, first compound 0.01 µM); 63.4% under setting [8]; 46% under setting [9]. Further, the viability, T/C (second compound 1 µM, first compound 0.000316 µM) is 101%; the viability, T/C (second compound 1 µM, first compound 0.001 µM) was 122%; the viability, T/C (second compound 1 µM, first compound 0.00316 µM) is 109%; the viability, T/C (second compound 1 µM, first compound 0.01 µM) is 94.5%; the viability, T/C under setting [10] was 61.6%; the viability, T/C under setting [11] was 44.2%. The viability, T/C was 103% (second compound 3.16 µM, first compound 0.000316 µM); 110% (second compound 3.16 µM, first compound 0.001 µM); 109% (second compound 3.16 µM, first compound 0.00316 µM); 91.7% (second compound 3.16 µM, first compound 0.01 µM); 59% under setting [12]; 48.2% under setting [13]. The viability, T/C is, setting by setting: (second compound 10 µM, first compound 0.000316 µM) 117%; (second compound 10 µM, first compound 0.001 µM) 106%; (second compound 10 µM, first compound 0.00316 µM) 101%; (second compound 10 µM, first compound 0.01 µM) 82.3%; under setting [14], 65.8%; under setting [15], 57.8%.

Turning to `O=C(C=Cn1cnc(-c2cc(C(F)(F)F)cc(C(F)(F)F)c2)n1)NNc1cnccn1`, the viability, T/C reads like this: (compound 0.00949 µM) 104% and 94.3% and 105%; (compound 0.03 µM) 73.3% and 78.8% and 101%; (compound 0.0949 µM) 61.6% and 77.7% and 76.8%; (compound 0.3 µM) 49.5% and 51.9% and 57.9%; (compound 0.949 µM) 40.9% and 40.5% and 50.6%; (compound 3 µM) 40.6% and 47.6% and 43%. The IC50 (curve of compound) was 264 nM and 423 nM and 743 nM.
